We go through one compound from patent US5712274A, “Thienotriazolodiazepine compounds and their pharmaceutical use” (Yoshitomi Pharmaceutical Industries, Ltd., priority 1995, dated 1998).

Each structure is given as a SMILES string.

The subject of one test is CD11b. Description: Effect on CD11b expression in human histiocytic leukemia cell line, U937 cells (PDB-induced). The test is classed as cell-based. The following applies: U-937, 72 h, U937 cells, PDB 10 ng/ml, 3 days, read-out: Inhibitory effect on CD11b expression (IC50). The protocol: Effect on CD11b expression human histiocytic leukemia cell line, U937 cells
Effect on the expression of CD11b antigen, which is the α chain of an adhesion molecule, Mac-1 expressing on the surface of leukocytgic cells, was investigated. U937 cells were suspended in RPMI1640 medium containing 20% fetal calf serum (FCS), plated with phorbol 12,13-dibutyrate (PDB, 10 ng/ml) into 96-well filtration plates, and cultured for 3 days at 37° C. in 5% CO2. After the cells were washed once with RPMI1640 medium, rat anti-human CD11b antibody (2 μg/ml) was added to each well and the plates were incubated for 1 hr on ice. After the cell were washed twice, peroxidase-conjugated anti-rat immunoglobulin antibody (1 μg/ml) was added, and the cells were incubated for 1 hr on ice. After the cells were washed 3 times, substrate for peroxidase (o-phenylenediamine) was added. After the plates were stood for 15 min at room temperature, absorbance at 490 nm was measured with a 96-well microplate reader and was regarded as a indicator of CD11b antigen expression.

The subject of test [1] is oxazolone-induced ear edema. As to the kind of experiment: Effect on oxazolone-induced ear edema in mice. The test is classed as in vivo. The following applies: sensitized mice, 24 hr after challenge. The protocol: Effect on oxazolone-induced ear edema in mice.
Mice were sensitized by applying 50 μl of oxazolone solution (50 mg/ml in acetone) to their shaved abdomen on day 0. On day 7, 5 μl of oxazolone solution was applied to each surface of the right ear. After 24 hr (day 8), the right and left ears were cut off with a puncher of 6 mm in diameter and weighed with an electronic reading balance. The difference in weight between the oxazolone-treated ear (right) and untreated ear (left) was taken to reflect the extent of ear edema. Test compounds were suspended in 0.5% hydroxypropylmethycellulose solution and administered p.o. (0.1 ml/10 g body weight) on days 0 to 4 (once a day) and day 7 (twice a day).

The subject of test [2] is thioglycollate (TG) medium-induced infiltration of leukocytes. As to the kind of experiment: Effect on thioglycollate (TG) medium-induced infiltration of leukocytes. The following applies: TG medium 1 ml, day 4. The test is classed as in vivo, BALB/c mice. Here is the method: Effect on thioglycollate (TG) medium-induced infiltration of leukocytes
One ml of TG medium was injected into peritoneal cavity of BALB/c mice on day 0. On day 4, leukocytes infiltrating into the peritoneal cavity were collected with 3 ml of phosphatebuffered saline containing 0.02% EDTA and the density of leukocytes (cells/ml) was counted with an automatic blood cell counter. Total number of leukocytes (X) was calculated from the density of leukocytes (A) with the following formula.
Test compounds were suspended in 0.5% hydroxypropylmethyl-cellulose solution and administered p.o. (0.1 ml/10 g body weight) on days 0 to 3.

In a further test the test system is TNBS-induced colitis. Description: Effect on TNBS-induced colitis model in rats (oral administration). In kind it is in vivo, SD rats. The following applies: for Intestinal weight (mean ± S.D.) / MPO activity (mean ± S.D.): TNBS, 7 days. Here is the method: Effect on trinitrobenzenesufonic acid (TNBS)-induced colitis model in rats
Colitis was induced by intrarectal injection of TNBS solution (60 mg/ml in 50% EtOH, 500 μl/rat) to SD rats. Seven days later, rats were sacrificed and large intestine (8 cm from anus) was cut off and weighed. Myeloperoxidase (MPO) activity in the intestinal tissue was measured as follows and taken as an indicator of leukocyte infiltration: the intestinal tissue was homogenized and a cycle of freeze-thawing of the tissue was repeated 3 times. The supernatant obtained by centrifugation was assayed for MPO activity with substrate for peroxidase (o-phenylenediamine). MPO activity in the supernatant was calculated with the commercial MPO as a standard. The increases in intestinal weight and MPO activity as described above were taken as indicators of colitis. Test compound was suspended in 0.5% hydroxypropylmethylcellulose solution and administered p.o. (0.1 ml/10 g body weight) for 5 days beginning on the day of TNBS injection.

Another test deals with glomerulonephritis. Description: Effect on glomerulonephritis in mice (anti-GBM antiserum). The test is classed as in vivo, female C57BL/6 mice. The following applies: 12 days after anti-GBM antiserum, 0-5 points. The protocol:
Effect on glomerulonephritis in mice
Rabbit immunoglobulin G solution (4 mg/ml in saline) was mixed with Freund's complete adjuvant at a ratio of 1:1 and the emulsion was prepared. The emulsion was injected into peritoneal cavity of female C57BL/6 mice (0.25 ml/mouse). After 5 days, rabbit anti-mouse glomerular basement membrane (GBM) antiserum obtained by the method of Nagai et al. (Japan. J. Pharmacol., 32, 1117, 1982) was administered i.v. (0.08 ml/mouse). […] Test compounds were suspended in 0.5% hydroxypropylmethylcellulose (HPMC) solution and administered p.o. (0.1 ml/10 g body weight) for 13 days beginning on the day of anti-GBM ant-serum injection.

In test [3] the test system is antigen induced Eosinophils accumulation into lungs. As to the kind of experiment: Effect on antigen induced eosinophils accumulation into lungs in actively sensitized guinea pigs. The test is classed as in vivo, male Dunkin-Hartley guinea pigs. The settings on record: 30 mg/kg p.o., BALF 24 h after antigen exposure. The protocol: Effect on antigen induced Eosinophils accumulation into lungs in actively sensitized guinea pigs
Male Dunkin-Hartley guinea pigs (4W, Japan SLC, Inc.) were used throughout this study.
Sensitized animals were orally administered (p.o.) with compound or solvent (0.5% hydroxymethylcellulose) 30 min. before final sensitization, 30 min. before antigen exposure and 4.5 h after antigen exposure.
Egg albumin (EA, 10 μg) was added to AI(OH)3 (10 mg) in sterile physiological saline (0.5 ml) and mixed in a blender. This mixture was injected intraperitoneally into recipients. And after 14 days and 21 days, the procedure was repeated. Seven days after the final sensitization procedure, Mepyramine 10 mg/kg was injected intraperitoneally into the sensitized animals. After 30 min., the animals were exposed to aerosol of 1% EA in sterile physiological saline for 5 min.
24 h after antigen exposure, the animals were killed by exsanguination and tracheae were cannulated. And the lungs were lavaged three times with 10 ml of sterile physiological saline. Lavage fluid (BALF) was centrifuged (800 rpm for 10 min. at 4° C.) and the cell pellet was resuspended in 10 ml of sterile physilolgical saline and total cell numbers in BALF were counted in a hemocytometer (MEK 4200, Nihon-kohden, Ltd.). Differential cell counts were made from centrifuged preparations stained with May-Giemsa stain.

As for `CNC(=O)C[C@@H]1N=C(c2ccc(Cl)cc2)c2c(sc(C)c2C)-n2c(C)nnc21` [Example 1, (S)-N-methyl-4-(4-chloro-phenyl)-2,3,9-trimethyl-6H-thieno[3,2-f][1,2,4]triazolo[4,3-a]-[1,4]diazepine-6-acetamide 1/4 hydrate], the IC50 in the test on CD11b turned out to be 260 nM. The “Increase in ear weight (mean ± S.D.)” value in test [1] (0.1 mg/kg p.o.) is 16.3 ± 1.0 mg; in test [1] (0.3 mg/kg p.o.), 15.0 ± 0.6 mg; in test [1] (1 mg/kg p.o.), 14.2 ± 0.8 mg. Further, the entries for the “Total number of leukocytes (mean ± S.D.)” value in test [2] (0.03 mg/kg/day p.o.), in test [2] (0.1 mg/kg/day p.o.) and in test [2] (0.3 mg/kg/day p.o.) were 1059 ± 285 × 10^4, 719 ± 308 × 10^4 and 442 ± 117 × 10^4, respectively. The “Intestinal weight (mean ± S.D.)” value in the test on TNBS-induced colitis (0.3 mg/kg/day p.o.) came out at 1328.6 ± 1411.4 mg; in the test on TNBS-induced colitis (1 mg/kg/day p.o.), 574.2 ± 93.1 mg. Further, the “MPO activity (mean ± S.D.)” value came to 1.389 ± 2.806 U/ml in the test with TNBS-induced colitis (0.3 mg/kg/day p.o.) and 0.221 ± 0.020 U/ml with TNBS-induced colitis (1 mg/kg/day p.o.). The “Effect on intestinal weight and leukocyte infiltration in colitis (in words)” value in the test on TNBS-induced colitis (p.o., Tables 6A and 6B) was “significantly inhibit the increase in intestinal weight and the leukocyte infiltration caused by colitis in rats”. In addition, the “Score (mean ± S.D.) of protein level in urine” value in the test on glomerulonephritis (1 mg/kg/day p.o.) came out at 2.56 ± 0.53; with glomerulonephritis (3 mg/kg/day p.o.) it was 2.22 ± 0.67. Besides, the Number of eosinophils in test [3] is 7.0 ± 1.4 × 10^6.

A word on the IC50: it is the concentration that gives 50% inhibition.
